# Experimental data taken from US10577363B2, “Substituted piperidine compounds” (EPIZYME, INC., priority 2014, dated 2020).
# Experiments:
# [1] = biological target: T1, SMYD3 (Homo sapiens (Human), UniProt Q9H7B4); assay: SMYD3 cell assay (Trimethyl-MEKK2 In-Cell Western in 293T/17 cells); assay type: cell-based
# In short: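 In-Cell Western ratio of trimethyl-Lys260 MEKK2 to anti-flag signal; percent inhibition from DMSO and maximum-inhibition controls, IC50 by non-linear regression, triplicates.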
# [2] = biological target: T1, SMYD3; assay: SMYD3 biochemical assay (SPA, 3H-SAM methylation of MEKK2 protein substrate); conditions: read-out: SMYD3 Biochem IC50 (μM)*
# In short: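 Full-length native human SMYD3 (E. coli-expressed, tags removed) preincubated with compounds 30 min at room temperature, then reaction started with 3H-SAM and GST-tagged MEKK2 protein in 25 mM Tris-Cl pH 8.0, 1 mM TCEP, 0.005% BSG, 0.005% Tween 20. Quenched with unlabelled SAM (100 uM final); 3H-MEKK2 counted by SPA.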
# [3] = 293T/17 cells, read-out: SMYD3 Cell IC50 (μM)*
# T1 sequence (Q9H7B4 whole entry): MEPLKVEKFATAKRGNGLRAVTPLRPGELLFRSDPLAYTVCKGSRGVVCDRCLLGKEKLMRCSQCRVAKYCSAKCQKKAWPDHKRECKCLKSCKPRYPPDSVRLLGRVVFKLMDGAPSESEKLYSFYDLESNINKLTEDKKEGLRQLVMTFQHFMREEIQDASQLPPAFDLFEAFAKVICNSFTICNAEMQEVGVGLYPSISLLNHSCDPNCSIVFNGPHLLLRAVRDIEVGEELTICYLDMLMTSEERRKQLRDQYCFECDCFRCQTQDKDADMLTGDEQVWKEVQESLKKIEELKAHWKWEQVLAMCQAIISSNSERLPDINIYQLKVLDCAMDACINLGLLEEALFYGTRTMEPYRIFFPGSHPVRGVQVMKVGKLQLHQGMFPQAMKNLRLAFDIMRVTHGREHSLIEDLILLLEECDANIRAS
SMILES,IC50 [1],IC50 [2],"IC50 [1, 3]"
"C[C@@H]1CN(S(=O)(=O)CCCN)CC[C@@H]1NC(=O)c1cc(C2CC2)on1 [compound 387, N-((3R,4S)-1-((3-aminopropyl)sulfonyl)-3-methylpiperidin-4-yl)-5-cyclopropylisoxazole-3-carboxamide]",0.788 µM,0.07 µM,–
"NCCCS(=O)(=O)N1CC[C@@H](NC(=O)c2cc(C3CC3)on2)C[C@H]1Cc1ccccc1 [compound 390, N-((2R,4R)-1-((3-aminopropyl)sulfonyl)-2-benzylpiperidin-4-yl)-5-cyclopropylisoxazole-3-carboxamide]",–,0.464 µM,2.97 µM
"C[C@H]1C[C@@H](NC(=O)c2cc(C3CC3)on2)CCN1C(=O)CC1(CN)CCCCC1 [compound 391, N-((2S,4S)-1-(2-(1-(aminomethyl)cyclohexyl)acetyl)-2-methylpiperidin-4-yl)-5-cyclopropylisoxazole-3-carboxamide]",–,5.72 µM,> 10 µM
"NCCS(=O)(=O)N1[C@@H]2CC[C@H]1C[C@H](NC(=O)c1cc(C3CC3)on1)C2 [compound 395, N-((1R,3s,5S)-8-((2-aminoethyl)sulfonyl)-8-azabicyclo[3.2.1]octan-3-yl)-5-cyclopropylisoxazole-3-carboxamide]",–,0.611 µM,3.16 µM
"NCCS(=O)(=O)N1[C@@H]2CC[C@H]1C[C@@H](NC(=O)c1cc(C3CC3)on1)C2 [compound 396, N-((1R,3r,5S)-8-((2-aminoethyl)sulfonyl)-8-azabicyclo[3.2.1]octan-3-yl)-5-cyclopropylisoxazole-3-carboxamide]",–,0.0417 µM,0.375 µM
"CC(=O)Nc1ccc(S(=O)(=O)N2CC[C@H](NC(=O)c3cc(C4CC4)on3)C[C@H]2C)cc1 [compound 397, N-((2R,4S)-1-((4-acetamidophenyl)sulfonyl)-2-methylpiperidin-4-yl)-5-cyclopropylisoxazole-3-carboxamide]",–,> 10 µM,> 10 µM
"C[C@H]1C[C@@H](NC(=O)c2cc(C3CC3)on2)CCN1S(=O)(=O)c1cccc(C#N)c1 [compound 398, N-((2S,4S)-1-((3-cyanophenyl)sulfonyl)-2-methylpiperidin-4-yl)-5-cyclopropylisoxazole-3-carboxamide]",–,0.212 µM,1.21 µM
"O=C(N[C@@H]1C[C@H]2CC[C@@H](C1)N2S(=O)(=O)c1ccccc1)c1cc(C2CC2)on1 [compound 399, 5-cyclopropyl-N-((1R,3s,5S)-8-(phenylsulfonyl)-8-azabicyclo[3.2.1]octan-3-yl)isoxazole-3-carboxamide]",–,0.833 µM,2.87 µM
"O=C(N[C@H]1C[C@H]2CC[C@@H](C1)N2S(=O)(=O)c1ccccc1)c1cc(C2CC2)on1 [compound 400, 5-cyclopropyl-N-((1R,3r,5S)-8-(phenylsulfonyl)-8-azabicyclo[3.2.1]octan-3-yl)isoxazole-3-carboxamide]",–,4.13 µM,> 10 µM
"O=C(NC1CC2CCCC(C1)N2S(=O)(=O)c1ccccc1)c1cc(C2CC2)on1 (centres unmarked) [compound 401, 5-cyclopropyl-N-(9-(phenylsulfonyl)-9-azabicyclo[3.3.1]nonan-3-yl)isoxazole-3-carboxamide]",–,0.793 µM,2.95 µM
"CC(=O)Nc1ccc(S(=O)(=O)N2C3CCCC2CC(NC(=O)c2cc(C4CC4)on2)C3)cc1 (centres unmarked) [compound 402, N-(9-((4-acetamidophenyl)sulfonyl)-9-azabicyclo[3.3.1]nonan-3-yl)-5-cyclopropylisoxazole-3-carboxamide]",–,4.92 µM,> 10 µM
"CC(=O)Nc1ccc(S(=O)(=O)N2[C@@H]3CC[C@H]2C[C@@H](NC(=O)c2cc(C4CC4)on2)C3)cc1 [compound 403, N-((1R,3r,5S)-8-((4-acetamidophenyl)sulfonyl)-8-azabicyclo[3.2.1]octan-3-yl)-5-cyclopropylisoxazole-3-carboxamide]",–,10 µM,> 10 µM
"O=C(N[C@@H]1C[C@H]2CC[C@@H](C1)N2S(=O)(=O)c1ccc2[nH]c(=O)oc2c1)c1cc(C2CC2)on1 [compound 404, 5-cyclopropyl-N-((1R,3s,5S)-8-((2-oxo-2,3-dihydrobenzo[d]oxazol-6-yl)sulfonyl)-8-azabicyclo[3.2.1]octan-3-yl)isoxazole-3-carboxamide]",–,1.4 µM,2.92 µM
"O=C(N[C@H]1C[C@H]2CC[C@@H](C1)N2S(=O)(=O)c1ccc2[nH]c(=O)oc2c1)c1cc(C2CC2)on1 [compound 405, 5-cyclopropyl-N-((1R,3r,5S)-8-((2-oxo-2,3-dihydrobenzo[d]oxazol-6-yl)sulfonyl)-8-azabicyclo[3.2.1]octan-3-yl)isoxazole-3-carboxamide]",–,9.39 µM,> 10 µM
"O=C(N[C@@H]1CCN(S(=O)(=O)CCN2CCCC2)[C@H](Cc2ccccc2)C1)c1cc(C2CC2)on1 [compound 407, N-((2R,4R)-2-benzyl-1-((2-(pyrrolidin-1-yl)ethyl)sulfonyl)piperidin-4-yl)-5-cyclopropylisoxazole-3-carboxamide]",–,3.81 µM,> 10 µM
"O=C(NC1CC2CCCC(C1)N2S(=O)(=O)CCCN1CCOCC1)c1cc(C2CC2)on1 (centres unmarked) [compound 410, 5-cyclopropyl-N-(9-((3-morpholinopropyl)sulfonyl)-9-azabicyclo[3.3.1]nonan-3-yl)isoxazole-3-carboxamide]",–,6.32 µM,> 10 µM
"COCCN(C)c1ccc(S(=O)(=O)N2CC[C@H](NC(=O)c3cc(C4CC4)on3)C[C@@H]2C)cn1 [compound 412, 5-cyclopropyl-N-((2S,4S)-1-((6-((2-methoxyethyl)(methyl)amino)pyridin-3-yl)sulfonyl)-2-methylpiperidin-4-yl)isoxazole-3-carboxamide]",–,2.12 µM,8.22 µM
"COCCNc1ccc(S(=O)(=O)N2CC[C@H](NC(=O)c3cc(C4CC4)on3)C[C@@H]2C)cn1 [compound 413, 5-cyclopropyl-N-((2S,4S)-1-((6-((2-methoxyethyl)amino)pyridin-3-yl)sulfonyl)-2-methylpiperidin-4-yl)isoxazole-3-carboxamide]",–,1.48 µM,4.51 µM
"C[C@H]1C[C@@H](NC(=O)c2cc(C3CC3)on2)CCN1S(=O)(=O)c1ccc(N(C)CCN2CCOCC2)nc1 [compound 414, 5-cyclopropyl-N-((2S,4S)-2-methyl-1-((6-(methyl(2-morpholinoethyl)amino)pyridin-3-yl)sulfonyl)piperidin-4-yl)isoxazole-3-carboxamide]",–,0.889 µM,2.61 µM
"C[C@H]1C[C@H](NC(=O)c2cc(C3CC3)on2)CCN1S(=O)(=O)c1ccc(NCCN)nc1 [compound 415, N-((2S,4R)-1-((6-((2-aminoethyl)amino)pyridin-3-yl)sulfonyl)-2-methylpiperidin-4-yl)-5-cyclopropylisoxazole-3-carboxamide]",–,0.135 µM,5.62 µM
"C[C@H]1CN(C(=O)[C@H]2CC[C@H](N)CC2)[C@@H](C)C[C@H]1NC(=O)c1cc(C2CC2)on1 [compound 419, N-((2S,4R,5S)-1-((1r,4S)-4-aminocyclohexane-1-carbonyl)-2,5-dimethylpiperidin-4-yl)-5-cyclopropylisoxazole-3-carboxamide]",–,1.95 µM,> 10 µM
"NCCCS(=O)(=O)N1CC[C@H](NC(=O)c2cc(C3CC3)on2)C[C@H]1Cc1ccccc1 [compound 423, N-((2R,4S)-1-((3-aminopropyl)sulfonyl)-2-benzylpiperidin-4-yl)-5-cyclopropylisoxazole-3-carboxamide]",–,0.25 µM,1.86 µM
"NCCCS(=O)(=O)N1CC[C@H](NC(=O)c2cc(C3CC3)on2)C[C@@H]1Cc1ccccc1 [compound 424, N-((2S,4S)-1-((3-aminopropyl)sulfonyl)-2-benzylpiperidin-4-yl)-5-cyclopropylisoxazole-3-carboxamide]",–,0.228 µM,1.8 µM
"CC1CC(NC(=O)c2cc(C3CC3)on2)CCN1C(=O)Cc1ncc[nH]1 (centres unmarked) [compound 427, N-(1-(2-(1H-imidazol-2-yl)acetyl)-2-methylpiperidin-4-yl)-5-cyclopropylisoxazole-3-carboxamide]",–,> 10 µM,> 10 µM
"C[C@@H]1C[C@H](NC(=O)c2cc(C3CC3)on2)CCN1S(=O)(=O)c1c[nH]cn1 [compound 428, N-((2R,4R)-1-((1H-imidazol-4-yl)sulfonyl)-2-methylpiperidin-4-yl)-5-cyclopropylisoxazole-3-carboxamide]",–,0.732 µM,2.58 µM
"CC(=O)Nc1ccc(S(=O)(=O)N2[C@@H]3CC[C@H]2C[C@H](NC(=O)c2cc(C4CC4)on2)C3)cc1 [compound 430, N-((1R,3s,5S)-8-((4-acetamidophenyl)sulfonyl)-8-azabicyclo[3.2.1]octan-3-yl)-5-cyclopropylisoxazole-3-carboxamide]",–,3.66 µM,4.52 µM
"O=C(Nc1ccc(S(=O)(=O)N2[C@@H]3CC[C@H]2C[C@@H](NC(=O)c2cc(C4CC4)on2)C3)cc1)c1ccncc1 [compound 431, 5-cyclopropyl-N-((1R,3r,5S)-8-((4-(isonicotinamido)phenyl)sulfonyl)-8-azabicyclo[3.2.1]octan-3-yl)isoxazole-3-carboxamide]",–,> 10 µM,> 10 µM
"O=C1Cc2cc(S(=O)(=O)N3[C@@H]4CC[C@H]3C[C@@H](NC(=O)c3cc(C5CC5)on3)C4)c(Cl)cc2N1 [compound 432, N-((1R,3r,5S)-8-((6-chloro-2-oxoindolin-5-yl)sulfonyl)-8-azabicyclo[3.2.1]octan-3-yl)-5-cyclopropylisoxazole-3-carboxamide]",–,6.3 µM,> 10 µM
